Earlier results as cited in US20070134273A1, “Composition and method for the treatment of carcinoma” (priority 2004, published 2007).
Read-outs that look alike come from different tables or passages of the source.

Key:
[1] = tested on: peripheral blood mononuclear cells, monocytes, and dendritic cells; details: in vitro and in vivo, versus imiquimod (Aldara R-837)
[2] = transurethral resection plus intravesical agent versus transurethral resection alone

SMILES	studies with a significant reduction in tumor progression (bladder cancer; [2])	studies with a significant reduction in tumor recurrences (bladder cancer; [2])	potency in inducing cytokines relative to imiquimod [1]	studies with a significant reduction in tumor progression (bladder cancer; in vivo)	studies with a significant reduction in tumor recurrences (bladder cancer; in vivo)
CO[C@@]12[C@H](COC(N)=O)C3=C(C(=O)C(C)=C(N)C3=O)N1C[C@@H]1N[C@@H]12 [mitomycin]	0 of 2	2 of 5	–	–	–
COc1cccc2c1C(=O)c1c(O)c3c(c(O)c1C2=O)C[C@@](O)(C(=O)CO)C[C@@H]3O[C@H]1C[C@H](N)[C@H](O)[C@H](C)O1 [doxorubicin]	0 of 2	2 of 4	–	–	–
CCOCc1nc2c(N)nc3ccccc3c2n1CC(C)(C)O [Resiquimod, 4-amino-2-ethoxymethyl-α, α-dimethyl-1H-imidazo[4,5-c]quinoline-1-ethanol]	–	–	about 100 times	–	–
S=P(N1CC1)(N1CC1)N1CC1 [thiotepa]	–	–	–	0 of 3	6 of 10
